# Measurements as given in patent US10189824B2, “Pyrimidine-diamine dual HSP90/TRAP1 inhibitors” (CalAsia Pharmaceuticals, Inc., priority 2014, dated 2019).
# Tests used:
# human Hsp90 = experiment: Fluorescence polarization (FP) displacement assay, GA-FITC, Hsp90; format: binding; settings: FP displacement of GA-FITC, 50 nM Hsp90; for Ki: read-out: Biochemical efficacy HSP90 Ki
# Protocol: (§1) Prior to transforming into BL21 (DE3) all the cloned vectors were sequence confirmed. Expressed proteins were purified using NTA resin (Life Technologies) followed by size exclusion chromatography using FPLC. The molecular mass of the purified proteins was confirmed by MALDI-TOF and assessed for purity by SDS-PAGE.
# (§2) The assay conditions were 20 mM HEPES, pH-7.5, 50 mM KCl, 5 mM MgCl2, 20 mM sodium molybdate, 2 mM DTT, 0.01% NP40, 100 ug/ml BSA, 50 nM Hsp90 or 200 nM TRAP1, 1% DMSO, and 8 nM (for Hsp90) or 20 nM (for TRAP1) GA-FITC in the presence of increasing concentrations of test compound.
# TRAP1 = biological target: T1, TRAP1 (Homo sapiens, UniProt Q12931); experiment: Fluorescence polarization (FP) displacement assay, GA-FITC, TRAP1; format: binding; settings: FP displacement of GA-FITC, 200 nM TRAP1; for Ki: NA: Not active, read-out: Biochemical efficacy TRAP1 Ki
# T1 construct: Recombinant full-length human Hsp90 and 459 TRAP1 were cloned; 6His (TEV-cleavable) (N); made in house; host or cells: E. coli BL21 (DE3)
# T1 sequence (Q12931 60-704): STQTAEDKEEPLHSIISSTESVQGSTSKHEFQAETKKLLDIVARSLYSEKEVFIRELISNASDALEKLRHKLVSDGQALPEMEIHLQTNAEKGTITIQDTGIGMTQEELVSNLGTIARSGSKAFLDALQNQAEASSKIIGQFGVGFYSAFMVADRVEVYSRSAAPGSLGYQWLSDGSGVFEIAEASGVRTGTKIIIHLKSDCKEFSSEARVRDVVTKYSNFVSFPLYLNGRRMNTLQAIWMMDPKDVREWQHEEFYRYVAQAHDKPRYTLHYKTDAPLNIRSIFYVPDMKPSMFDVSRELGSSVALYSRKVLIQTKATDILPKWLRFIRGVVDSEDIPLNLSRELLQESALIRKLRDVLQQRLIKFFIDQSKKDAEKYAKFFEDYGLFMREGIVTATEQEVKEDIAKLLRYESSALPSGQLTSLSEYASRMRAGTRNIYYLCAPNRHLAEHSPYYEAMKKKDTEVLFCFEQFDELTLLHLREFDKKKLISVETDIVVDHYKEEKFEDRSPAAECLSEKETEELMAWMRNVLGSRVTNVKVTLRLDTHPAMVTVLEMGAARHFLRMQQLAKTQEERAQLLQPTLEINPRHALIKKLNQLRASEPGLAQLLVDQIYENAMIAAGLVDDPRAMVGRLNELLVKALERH
# Protocol: as §1, §2
# [1] = test system: EGFR levels in U251MG cells; experiment: Biomarker quantitation by ELISA, EGFR; format: cell-based; settings: 16 uM, 48 h
# Protocol: U251 cells were plated in 6 well format culture dishes overnight at 37° C. with 5% CO2 and then treated with increasing concentrations of test compounds for 48 h at 37° C. with 5% CO2. Quantification of total Akt1, EGFR, and Hsp70 in cell lysates was accomplished using ELISA kits (R&D Systems) according to the manufacturer's recommendations and utilizing a Synergy HT micro-titer plate reader (Biotek). Cell lysates were prepared as recommended in the kit procedure. Protein concentrations of lysates clarified using centrifugation were determined using a Bradford assay (Thermo Scientific), and the values were used to normalize the biomarker values.
# U251MG cells = experiment: TMRE assay, cell-based (mitochondrial membrane potential); settings: for Decrease of specific TMRE fluorescence vs untreated: U251MG cells, 48 h
# Protocol: […] TMRE (200 nM) was then added to wells for 30 min and monitored for changes in fluorescence activity either by fluorescence microscopy using an inverted Zeiss LSM 710 confocal microscope or by spectrophotometry using a fluorescence plate reader (544ex/590em) after washing the cells. Specific TMRE fluorescence was calculated by comparison to matched wells pretreated with 20 uM FCCP for 10 min prior to addition of TMRE. For mitochondria assays, untreated U251MG cells grown to confluence in T75 culture flasks. Mitochondria from these cells were isolated using a mitochondria isolation kit (Thermo Scientific) and loaded with 0.1 mM TMRE in kit buffer at 37° C. for 20 min. After washing, the TMRE-loaded mitochondria (2 ug per well) were incubated in a 96 well black plate with test compounds and monitored kinetically at 30° C. for changes in fluorescence using a fluorescence plate reader (ex 544/em 590). The fluorescence intensity after treatment with 20 um FCCP in control wells corresponded to a fully depolarized state.
# Mitochondrial integrity was evaluated using Tetramethylrhodamine ethyl ester (TMRE) assay. A TMRE assay kit (Abcam) was used to evaluate Hsp90/TRAP1 inhibitor-induced changes in mitochondrial membrane potential. […] TMRE (200 nM) was then added to wells for 30 min and monitored for changes in fluorescence activity using a fluorescence plate reader (ex544/em 590) after washing the cells. Specific TMRE fluorescence was calculated by comparison to matched wells pretreated with the depolarizing proton ionophore carbonyl cyanide 4-(trifluoromethoxy)phenylhydrazone (FCCP) at 20 uM 10 min prior to addition of TMRE. For mitochondria assays, mitochondria was isolated using a kit from Thermoscientific and loaded with 0.1 mM TMRE. TMRE-loaded mitochondria (2 μg per well) were incubated with test compounds and monitored kinetically at 30° C. for changes in fluorescence using a flurorescence plate reader (ex 544/em 590) (FIGS. 6A, 9A and 12).
# GBM10 = experiment: Cellular efficacy in Mayo Clinic GBM PDX cell line GBM10; format: cell-based
# Protocol: (§3) Short-term explant cultures from PDX models were seeded into 96-well Perfecta3D hanging drop plates to form a single spheroid in each well after 2 days. The spheroids were transferred to a round bottom 96 well plate by centrifugation and then incubated with graded concentrations of test compound (8 spheroids per compound concentration). Spheroid volumes were monitored every 6 hours over the course of 5 days using the IncuCyte system (Essen BioScience, MI, US) to provide a growth curve akin to a tumor regrowth assay.
# GBM43 = experiment: Cellular efficacy in Mayo Clinic GBM PDX cell line GBM43; format: cell-based
# Protocol: as §3
# [2] = test system: Hsp90 client proteins (EGFR and Akt1) in Mayo Clinic GBM PDX cell lines; experiment: Cellular biomarker assays (EGFR, Akt1 ELISA) in Mayo Clinic GBM PDX cell lines; format: cell-based; settings: 48 hours; three cell lines
# [3] = test system: Mayo Clinic patient derived GBM tumor cells; experiment: Mayo Clinic patient derived GBM tumor cell proliferation; format: cell-based; settings: 132 hours
# Protocol: as §3
SMILES,Ki (human Hsp90),Ki (TRAP1),Reduction of EGFR levels [1],Decrease of specific TMRE fluorescence vs untreated (U251MG cells; 5 uM),Decrease of specific TMRE fluorescence vs untreated (U251MG cells; 50 uM),IC50 (human Hsp90; read-out: Biochemical efficacy HSP90 IC50),IC50 (TRAP1; read-out: Biochemical efficacy TRAP1 IC50),Effect on TMRE fluorescence of U251MG cells (U251MG cells; 2 hour or 4 hr),EC50 (GBM10),EC50 (GBM43),"Effect on EGFR and Akt1 levels, GBM PDX cell lines [2]",Effect on patient derived GBM tumor cell proliferation [3]
"COc1c(C)cnc(CN(CCc2ccccn2)c2cc(Cl)nc(N)n2)c1C [Compound 1, 6-chloro-4-N-[(4-methoxy-3,5-dimethylpyridin-2yl)methyl]-4-N-[2-(pyridine-2-yl)ethyl]pyrimidine-2,4-amine]",39.4 nM,50.4 nM,71%,42%,73%,–,–,–,–,–,–,–
"COc1c(C)cnc(CN(CC2(c3ccc(F)cc3)CCOCC2)c2cc(Cl)nc(N)n2)c1C [Compound A, 6-chloro-4-N-{[4-(4-fluorophenyl)oxan-4-yl]methyl}-4-N-[(4-methoxy-3,5-dimethylpyridin-2-yl)methyl]pyrimidine-2,4-diamine]",11 nM,39 nM,–,–,–,44 nM,312 nM,dose-dependent decrease,280 nM,280 nM,suppression of Hsp90 client proteins,inhibit
